Where two headings read alike, the source gives them in different places.
Key:
[1] = patients treated with anacetrapib along with baseline statin therapy compared with just a statin; cited from earlier work
[2] = biological target: endogenous CETP from serum (Homo sapiens (Human), UniProt P11597); experiment: RTA assay in 95% human serum (CETP-catalyzed CE and TG transfer, endogenous CETP); assay type: biochemical
[3] = RTA assay in 95% human serum, read-out: IC50

Sequence of endogenous CETP from serum (P11597 18-493 limits assumed): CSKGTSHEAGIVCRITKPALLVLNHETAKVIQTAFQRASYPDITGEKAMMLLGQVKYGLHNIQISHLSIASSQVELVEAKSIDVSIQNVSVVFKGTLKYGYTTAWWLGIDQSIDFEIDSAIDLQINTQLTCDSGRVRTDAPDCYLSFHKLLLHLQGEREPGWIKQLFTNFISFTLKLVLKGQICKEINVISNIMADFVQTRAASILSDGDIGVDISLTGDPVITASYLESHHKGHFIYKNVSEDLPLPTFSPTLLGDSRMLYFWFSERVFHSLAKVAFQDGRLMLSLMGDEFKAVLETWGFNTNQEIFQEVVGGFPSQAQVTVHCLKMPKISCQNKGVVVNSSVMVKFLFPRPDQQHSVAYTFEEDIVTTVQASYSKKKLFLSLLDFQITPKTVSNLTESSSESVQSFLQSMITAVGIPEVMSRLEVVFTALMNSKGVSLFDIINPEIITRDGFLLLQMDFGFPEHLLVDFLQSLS

SMILES | IC50 [2, 3] | also measured
COc1cc(F)c(C(C)C)cc1-c1ccc(C(F)(F)F)cc1CN1C(=O)O[C@H](c2cc(C(F)(F)F)cc(C(F)(F)F)c2)[C@@H]1C [anacetrapib] | – | decrease of LDL-C [1]: 40%; increase of HDL-C [1]: 138%
COc1ncc(-c2ccc(C(=O)O)cc2C)cc1-c1ccc(C(F)(F)F)cc1[C@@H]1C=C[C@H]2[C@@H](c3cc(C(F)(F)F)cc(C(F)(F)F)c3)OC(=O)N12 [Example 67, 4-(5-(2-((1R,5S,7aS)-1-(3,5-bis(trifluoromethyl)phenyl)-3-oxo-1,3,5,7a-tetrahydropyrrolo[1,2-c]oxazol-5-yl)-4-(trifluoromethyl)phenyl)-6-methoxypyridin-3-yl)-3-methylbenzoic acid] | 199 nM | –
COc1ccc([C@@H]2CC(=O)N[C@H]2C)cc1-c1ccc(C(F)(F)F)cc1[C@@H]1CC[C@H]2[C@@H](c3cc(C(F)(F)F)cc(C(F)(F)F)c3)OC(=O)N12 [Example 76, (1R,5S,7aS)-1-[3,5-bis(trifluoromethyl)phenyl]-5-{2′-methoxy-5′-[(2S,3S)-2-methyl-5-oxopyrrolidin-3-yl]-4-(trifluoromethyl)biphenyl-2-yl}tetrahydro-1H-pyrrolo[1,2-c][1,3]oxazol-3-one] | 466 nM | –
O=C1O[C@H](c2cc(C(F)(F)F)cc(C(F)(F)F)c2)[C@@H]2CC[C@@H](c3cc(C(F)(F)F)ccc3-c3cc(F)ccc3F)N12 [Example 25, (1R,5S,7aS)-1-[3,5-bis(trifluoromethyl)phenyl]-5-[2′,5′-difluoro-4-(trifluoromethyl)biphenyl-2-yl]tetrahydro-1H-pyrrolo[1,2-c][1,3]oxazol-3-one] | 104 nM | –
COC(=O)c1ccc(-c2cc(-c3ccc(C(F)(F)F)cc3[C@@H]3CC[C@H]4[C@@H](c5cc(C(F)(F)F)cc(C(F)(F)F)c5)OC(=O)N34)c(OC)cc2F)c(C)c1 [Example 6, methyl 2″-{(1R,5S,7aS)-1-[3,5-bis(trifluoromethyl)phenyl]-3-oxotetrahydro-1H-pyrrolo[1,2-c][1,3]oxazol-5-yl}-6′-fluoro-4′-methoxy-2-methyl-4″- (trifluoromethyl)-1,1′:3′,1″- terphenyl-4-carboxylate] | 641 nM | –
COc1ccc(CCc2nnc(N)o2)cc1-c1ccc(C(F)(F)F)cc1[C@@H]1CCC[C@H]2[C@@H](c3cc(C(F)(F)F)cc(C(F)(F)F)c3)OC(=O)N12 [Example 82, (1R,5S,8aS)-5-{5′-[2-(5-amino-1,3,4-oxadiazol-2-yl)ethyl]-2′-methoxy-4-(trifluoromethyl)biphenyl-2-yl}-1-[3,5-bis(trifluoromethyl)phenyl]hexahydro[1,3]oxazolo[3,4-a]pyridin-3-one] | – | IC50 ([2]; RTA assay, 95% human serum, read-out: RTA (95% HS)): 1320 nM
O=C1O[C@H](c2cc(C(F)(F)F)cc(C(F)(F)F)c2)[C@@H]2CC[C@@H](c3cc(C(F)(F)F)ccc3-c3ccsc3)N12 [Example 18, (1R,5S,7aS)-1-[3,5-bis(trifluoromethyl)phenyl]-5-[2-thiophen-3-yl-5-(trifluoromethyl)phenyl]tetrahydro-1H-pyrrolo[1,2-c][1,3]oxazol-3-one] | 103 nM | –
Cc1cocc1-c1ccc(C(F)(F)F)cc1[C@@H]1CC[C@H]2[C@@H](c3cc(C(F)(F)F)cc(C(F)(F)F)c3)OC(=O)N12 [Example 16, (1R,5S,7aS)-1-[3,5-bis(trifluoromethyl)phenyl]-5-[2-(4-methylfuran-3-yl)-5-(trifluoromethyl)phenyl]tetrahydro-1H-pyrrolo[1,2-c][1,3]oxazol-3-one] | 343 nM | –
COc1cc(F)c(CCC(=O)O)cc1-c1ccc(C(F)(F)F)cc1[C@@H]1CCC[C@H]2[C@@H](c3cc(C(F)(F)F)cc(C(F)(F)F)c3)OC(=O)N12 [Example 46, 3-[2′-{(1R,5S,8aS)-1-[3,5-bis(trifluoromethyl)phenyl]-3-oxohexahydro[1,3]oxazolo[3,4-a]pyridin-5-yl}-4-fluoro-6-methoxy-4′-(trifluoromethyl)biphenyl-3-yl]propanoic acid] | 1630 nM | –
O=C1O[C@H](c2cc(C(F)(F)F)cc(C(F)(F)F)c2)[C@@H]2CC[C@@H](c3cc(C(F)(F)F)ccc3-c3ccccc3Cl)N12 [Example 15, (1R,5S,7aS)-1-[3,5-bis(trifluoromethyl)phenyl]-5-[2′-chloro-4-(trifluoromethyl)biphenyl-2-yl]tetrahydro-1H-pyrrolo[1,2-c][1,3]oxazol-3-one] | 453 nM | –
COc1ncc(-c2ccc(C(=O)O)cc2C)cc1-c1ccc(C(F)(F)F)cc1[C@@H]1CC[C@H]2[C@@H](c3cc(C)cc(C(F)(F)F)c3)OC(=O)N12 [Example 55, 4-{6-methoxy-5-[2-{(1R,5S,7aS)-1-[3-methyl-5-(trifluoromethyl)phenyl]-3-oxotetrahydro-1H-pyrrolo[1,2-c][1,3]oxazol-5-yl}-4-(trifluoromethyl)phenyl]pyridin-3-yl}-3-methylbenzoic acid] | 85 nM | –
COc1cc(F)c(C(C)C)cc1-c1cnc(N(C)C)cc1[C@@H]1C=C[C@H]2[C@@H](c3cc(C(F)(F)F)cc(C(F)(F)F)c3)OC(=O)N12 [Example 49, (1R,5S,7aS)-1-[3,5-bis(trifluoromethyl)phenyl]-5-{2-(dimethylamino)-5-[4-fluoro-2-methoxy-5-(1-methylethyl)phenyl]pyridin-4-yl}-5,7a-dihydro-1H-pyrrolo[1,2-c][1,3]oxazol-3-one] | 438 nM | –
COc1ncc(-c2ccc(C(=O)O)cc2C)cc1-c1ncc(C(F)(F)F)cc1[C@@H]1C=C[C@H]2[C@@H](c3cc(C(F)(F)F)cc(C(F)(F)F)c3)OC(=O)N12 [Example 69, 4-(3-((1R,5S,7aS)-1-(3,5-bis(trifluoromethyl)phenyl)-3-oxo-1,3,5,7a-tetrahydropyrrolo[1,2-c]oxazol-5-yl)-2′-methoxy-5-(trifluoromethyl)-[2,3′-bipyridin]-5′-yl)-3-methylbenzoic acid] | 456 nM | –
COc1cc(F)c(-c2ccc(C(=O)O)cc2C)cc1-c1ccc(C(F)(F)F)cc1[C@@H]1CCC[C@H]2[C@@H](c3cc(C(F)(F)F)cc(C(F)(F)F)c3)OC(=O)N12 [Example 44, 2″-{(1R,5S,8aS)-1-[3,5-bis(trifluoromethyl)phenyl]-3-oxohexahydro[1,3]oxazolo[3,4-a]pyridin-5-yl}-6′-fluoro-4′-methoxy-2-methyl-4″- (trifluoromethyl)-1,1′:3′,1″- terphenyl-4-carboxylic acid] | 718 nM | –
Cc1cscc1-c1ccc(C(F)(F)F)cc1[C@@H]1CC[C@H]2[C@@H](c3cc(C(F)(F)F)cc(C(F)(F)F)c3)OC(=O)N12 [Example 24, (1R,5S,7aS)-1-[3,5-bis(trifluoromethyl)phenyl]-5-[2-(4-methylthiophen-3-yl)-5-(trifluoromethyl)phenyl]tetrahydro-1H-pyrrolo[1,2-c][1,3]oxazol-3-one] | 122 nM | –
Cc1cc(C(=O)O)ccc1-c1cnc(C)c(-c2ccc(C(F)(F)F)cc2[C@@H]2CC[C@H]3[C@@H](c4cc(C(F)(F)F)cc(C(F)(F)F)c4)OC(=O)N23)c1 [Example 66, 4-{5-[2-{(1R,5S,7aS)-1-[3,5-bis(trifluoromethyl)phenyl]-3-oxotetrahydro-1H-pyrrolo[1,2-c][1,3]oxazol-5-yl}-4-(trifluoromethyl)phenyl]-6-methylpyridin-3-yl}-3-methylbenzoic acid] | 1290 nM | –
